2 molecules from patent US20050085556A1, “Detection of cholesterol ozonation products” (priority 2003, published 2005) can be followed below.

Each structure is given as a SMILES string. Entries after “also recorded” stand apart in the source; their conditions may differ.

The test system of one test is J774.1 macrophages. As to the kind of experiment: Lipid-loading assay (foam cell formation). The note with it: LDL 100 μg/mL plus compound 20 μM, 72 h, oil red O stain. It counts as cell-based, murine. As for the experimental part:
Lipid-loading assay (foam cell formation). J774.1 macrophages were incubated in ATCC-recommended media containing 10% fetal bovine serum under a controlled atmosphere of 5 or 7% CO2 at 37° C., in 8-well chamber slides. […] At termination, cells were washed twice with PBS (pH 7.4). The cells were then fixed with 6% (v/v) paraformaldehyde in PBS for 30 minutes, rinsed with propylene glycol for 2 minutes and lipids were stained with 5 mg/ml Oil Red O for 8 minutes. The cells were counterstained with Harris' hematoxylin for 45 seconds, and background staining was removed with […] followed by washing once in PBS and once in tap water. Cover slips were mounted onto the glass slides using glycerol and the slide preparations were examined by light microscopy. The number of lipid-laden cells was scored out of a total of at least 100 cells counted in a single field in each slide, and expressed as a percentage of total cells. Photographs were taken at 100×magnification.

For a further test, the target named is LDL (apoB-100) (Homo sapiens, UniProt P04114). As to the kind of experiment: Circular dichroism of LDL secondary structure. The note with it: LDL 100 μg/ml with compound 10 μM, PBS pH 7.4, 37° C.; for random coil of LDL protein: normal LDL 27±2%; for α helical structure of LDL protein: normal LDL ~40±2%.
Sequence of LDL (apoB-100) (P04114 28-4563): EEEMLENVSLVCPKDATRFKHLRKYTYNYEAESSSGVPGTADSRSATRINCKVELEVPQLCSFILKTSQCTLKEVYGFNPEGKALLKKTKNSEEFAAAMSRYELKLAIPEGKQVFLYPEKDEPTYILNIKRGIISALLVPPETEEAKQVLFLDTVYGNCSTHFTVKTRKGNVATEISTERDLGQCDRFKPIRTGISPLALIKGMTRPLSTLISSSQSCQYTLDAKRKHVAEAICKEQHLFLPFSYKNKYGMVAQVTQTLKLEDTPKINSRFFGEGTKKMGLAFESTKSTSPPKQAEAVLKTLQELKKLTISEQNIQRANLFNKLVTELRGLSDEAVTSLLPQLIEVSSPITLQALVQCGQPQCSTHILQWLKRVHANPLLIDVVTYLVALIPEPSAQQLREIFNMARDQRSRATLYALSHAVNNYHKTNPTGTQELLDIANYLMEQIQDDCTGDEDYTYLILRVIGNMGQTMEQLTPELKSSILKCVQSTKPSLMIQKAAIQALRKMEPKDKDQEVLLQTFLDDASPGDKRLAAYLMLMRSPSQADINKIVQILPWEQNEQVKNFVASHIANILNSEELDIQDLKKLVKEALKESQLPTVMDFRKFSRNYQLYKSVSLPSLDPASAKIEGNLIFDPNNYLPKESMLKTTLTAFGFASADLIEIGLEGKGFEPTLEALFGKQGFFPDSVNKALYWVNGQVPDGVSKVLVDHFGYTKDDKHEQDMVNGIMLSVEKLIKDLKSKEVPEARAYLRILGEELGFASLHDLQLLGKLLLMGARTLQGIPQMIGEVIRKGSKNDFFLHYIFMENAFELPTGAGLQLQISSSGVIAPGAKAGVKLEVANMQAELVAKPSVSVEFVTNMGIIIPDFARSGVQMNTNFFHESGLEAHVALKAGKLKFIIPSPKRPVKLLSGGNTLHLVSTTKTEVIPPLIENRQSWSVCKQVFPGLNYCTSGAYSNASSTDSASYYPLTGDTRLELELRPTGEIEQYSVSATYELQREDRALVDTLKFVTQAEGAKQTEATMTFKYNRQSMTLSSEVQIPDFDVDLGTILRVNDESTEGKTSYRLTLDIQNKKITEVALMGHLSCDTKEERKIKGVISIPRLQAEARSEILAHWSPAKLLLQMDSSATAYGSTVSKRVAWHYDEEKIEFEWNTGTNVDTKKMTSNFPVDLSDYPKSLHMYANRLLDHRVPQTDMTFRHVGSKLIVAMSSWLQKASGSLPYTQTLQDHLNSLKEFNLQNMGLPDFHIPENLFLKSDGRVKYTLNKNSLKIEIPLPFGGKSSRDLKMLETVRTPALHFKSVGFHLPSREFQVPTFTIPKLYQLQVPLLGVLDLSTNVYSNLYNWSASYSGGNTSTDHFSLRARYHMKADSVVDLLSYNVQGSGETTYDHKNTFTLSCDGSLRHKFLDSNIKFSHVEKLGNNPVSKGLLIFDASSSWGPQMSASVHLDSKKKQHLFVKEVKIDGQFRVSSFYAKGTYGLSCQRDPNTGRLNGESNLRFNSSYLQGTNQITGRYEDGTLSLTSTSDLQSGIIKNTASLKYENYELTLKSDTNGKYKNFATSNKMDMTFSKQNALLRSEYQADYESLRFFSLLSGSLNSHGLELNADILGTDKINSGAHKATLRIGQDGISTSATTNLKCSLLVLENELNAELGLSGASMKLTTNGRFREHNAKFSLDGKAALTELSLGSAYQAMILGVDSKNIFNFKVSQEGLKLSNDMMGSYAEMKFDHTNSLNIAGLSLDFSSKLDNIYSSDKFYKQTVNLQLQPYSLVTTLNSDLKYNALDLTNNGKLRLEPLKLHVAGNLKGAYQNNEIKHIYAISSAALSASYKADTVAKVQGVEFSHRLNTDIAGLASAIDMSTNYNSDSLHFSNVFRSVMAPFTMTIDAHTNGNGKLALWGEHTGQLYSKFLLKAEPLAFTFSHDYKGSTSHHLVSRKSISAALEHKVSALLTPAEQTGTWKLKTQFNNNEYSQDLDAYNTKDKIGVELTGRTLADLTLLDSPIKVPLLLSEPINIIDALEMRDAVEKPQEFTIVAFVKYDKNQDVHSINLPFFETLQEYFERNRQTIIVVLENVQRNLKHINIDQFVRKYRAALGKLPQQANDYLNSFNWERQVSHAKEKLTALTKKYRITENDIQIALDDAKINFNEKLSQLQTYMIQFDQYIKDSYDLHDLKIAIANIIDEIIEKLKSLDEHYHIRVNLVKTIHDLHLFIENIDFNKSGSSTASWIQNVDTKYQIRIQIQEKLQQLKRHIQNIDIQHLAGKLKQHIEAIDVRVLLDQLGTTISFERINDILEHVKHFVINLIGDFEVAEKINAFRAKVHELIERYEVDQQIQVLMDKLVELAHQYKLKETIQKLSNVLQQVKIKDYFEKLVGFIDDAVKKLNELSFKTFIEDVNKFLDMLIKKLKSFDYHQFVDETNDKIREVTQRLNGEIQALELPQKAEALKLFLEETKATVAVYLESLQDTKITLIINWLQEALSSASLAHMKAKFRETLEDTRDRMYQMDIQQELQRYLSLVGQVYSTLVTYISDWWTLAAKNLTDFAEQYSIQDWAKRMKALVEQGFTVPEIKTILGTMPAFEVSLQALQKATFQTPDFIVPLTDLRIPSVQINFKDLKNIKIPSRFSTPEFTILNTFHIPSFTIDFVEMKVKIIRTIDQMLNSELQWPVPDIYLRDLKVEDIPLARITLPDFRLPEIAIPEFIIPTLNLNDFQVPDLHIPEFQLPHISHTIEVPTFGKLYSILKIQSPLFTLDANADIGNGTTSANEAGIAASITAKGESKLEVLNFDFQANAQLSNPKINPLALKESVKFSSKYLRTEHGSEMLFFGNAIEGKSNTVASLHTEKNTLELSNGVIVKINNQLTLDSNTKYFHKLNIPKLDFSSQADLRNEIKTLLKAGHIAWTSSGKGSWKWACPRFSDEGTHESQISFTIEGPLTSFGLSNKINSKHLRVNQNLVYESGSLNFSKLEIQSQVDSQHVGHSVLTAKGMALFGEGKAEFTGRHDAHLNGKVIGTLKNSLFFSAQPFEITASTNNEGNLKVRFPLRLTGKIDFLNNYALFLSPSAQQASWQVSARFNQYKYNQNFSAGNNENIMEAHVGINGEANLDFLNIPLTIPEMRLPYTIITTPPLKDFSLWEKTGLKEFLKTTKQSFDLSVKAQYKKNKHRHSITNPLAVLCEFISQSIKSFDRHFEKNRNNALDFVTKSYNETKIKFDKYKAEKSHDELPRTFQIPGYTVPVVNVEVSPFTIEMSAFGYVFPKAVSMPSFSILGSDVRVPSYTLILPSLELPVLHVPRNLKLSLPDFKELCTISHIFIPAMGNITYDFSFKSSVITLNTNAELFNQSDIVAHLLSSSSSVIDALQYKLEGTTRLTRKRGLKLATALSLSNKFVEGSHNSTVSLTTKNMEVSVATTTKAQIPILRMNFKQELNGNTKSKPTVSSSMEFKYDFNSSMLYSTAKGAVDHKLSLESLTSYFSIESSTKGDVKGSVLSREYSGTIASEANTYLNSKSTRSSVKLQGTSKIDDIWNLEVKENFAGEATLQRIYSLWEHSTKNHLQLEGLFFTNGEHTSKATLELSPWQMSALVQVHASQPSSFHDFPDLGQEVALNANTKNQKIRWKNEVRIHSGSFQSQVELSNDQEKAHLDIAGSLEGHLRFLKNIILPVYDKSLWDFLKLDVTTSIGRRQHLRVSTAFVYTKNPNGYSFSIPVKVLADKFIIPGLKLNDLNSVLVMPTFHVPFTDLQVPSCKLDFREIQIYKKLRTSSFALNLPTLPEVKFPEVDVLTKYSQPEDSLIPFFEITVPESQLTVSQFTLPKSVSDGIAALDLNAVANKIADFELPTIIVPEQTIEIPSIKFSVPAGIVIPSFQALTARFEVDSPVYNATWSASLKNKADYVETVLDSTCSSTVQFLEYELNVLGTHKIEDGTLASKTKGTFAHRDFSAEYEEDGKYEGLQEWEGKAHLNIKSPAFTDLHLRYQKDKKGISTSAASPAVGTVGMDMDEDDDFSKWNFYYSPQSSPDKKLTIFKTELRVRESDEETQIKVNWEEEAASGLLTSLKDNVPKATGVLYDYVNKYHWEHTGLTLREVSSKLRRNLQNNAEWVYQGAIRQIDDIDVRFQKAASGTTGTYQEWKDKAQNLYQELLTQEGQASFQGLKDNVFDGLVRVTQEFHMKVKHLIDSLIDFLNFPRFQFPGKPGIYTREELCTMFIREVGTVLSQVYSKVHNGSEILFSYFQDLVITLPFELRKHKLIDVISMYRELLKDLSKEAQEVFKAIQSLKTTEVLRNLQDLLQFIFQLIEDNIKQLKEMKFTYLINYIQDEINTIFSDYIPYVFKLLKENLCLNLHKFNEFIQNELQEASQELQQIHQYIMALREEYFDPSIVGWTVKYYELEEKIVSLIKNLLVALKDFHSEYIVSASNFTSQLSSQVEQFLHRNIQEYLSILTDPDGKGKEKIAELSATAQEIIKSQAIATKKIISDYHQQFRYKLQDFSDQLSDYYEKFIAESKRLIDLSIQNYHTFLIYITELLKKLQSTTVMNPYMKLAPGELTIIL

Experimental for LDL (apoB-100): Circular dichroism. […] Spectra were recorded in the peptidic range (200-260 nm). To increase the signal-to-noise ratio, multiple spectra (three) were averaged for each measurement.

As for `CC(C)CCC[C@@H](C)[C@H]1CCC2C(CC=O)C([C@@]3(C)CC[C@H](O)CC3=O)CC[C@@]21C` (stereo partly drawn) [4a, 3β-Hydroxy-5-oxo-5,6-secocholestan-6-al], the “lipid-loading of macrophages (foam cell formation)” value in the test with J774.1 macrophages was “macrophages began lipid-loading and foam cells began to appear; also recorded: induces lipid-loading of macrophages to produce foam cells”. In addition, at LDL (apoB-100), the “random coil of LDL protein” value is given as approximately 39±2% and the “α helical structure of LDL protein” value was approximately 23±5%.
Consider `CC(C)CCC[C@@H](C)[C@H]1CCC2C3C(CC[C@@]21C)[C@@]1(C)CC[C@H](O)C[C@@]1(O)[C@@H]3C=O` (stereo partly drawn) [5a, 3β-Hydroxy-5β-hydroxy-B-norcholestane-6β-carboxaldehyde], for which the “lipid-loading of macrophages (foam cell formation)” value with J774.1 macrophages was “macrophages began lipid-loading and foam cells began to appear; also recorded: effect of ozonolysis product 4a upon macrophages was indistinguishable from the effect of ozonolysis product 5a”. For the same molecule, at LDL (apoB-100), the “random coil of LDL protein” value was determined as 32±4% and the “α helical structure of LDL protein” value was approximately 20±2%.
